First: Cn1ncnc1COc1nn2c(-c3ccccc3F)nnc2cc1C(F)(F)F
Second: C[C@@H](n1cnc2cc(C(F)(F)F)ccc2c1=O)[C@](O)(Cn1cncn1)c1ccc(Cl)cc1Cl
The melting point of the first is lower: 123 to 126 °C for the first, 158 to 160 °C for the second.

Compared with `CNC(=O)c1cccc(F)c1Nc1nc(Nc2ccc3c(c2)NC(=O)C(N2CCOCC2)CC3)ncc1Cl` (configuration not stated), `O=c1[nH]c2ccccc2c2ccc3nc(Nc4c(Cl)cccc4Cl)[nH]c3c12` is higher in melting point: 270 to 271 °C for the first, over 300 °C for the second.

Compared with `O=C(NCC(F)(F)F)c1nn(-c2ccc(F)cc2F)c2c1C1CCC2C1` (configuration not stated), `O=C(NCC1CC1)c1ccc(F)c2c1CC(N(CCCc1c[nH]c3ccc(F)cc13)C1CCC1)CO2` (configuration not stated) is lower in melting point: 149 to 152 °C for the first, 114 °C for the second.

Compared with `CCNc1nc(=S)n(CC)c2nc(C3CC3)[nH]c12`, `COC(=N)N1CCC(c2n[nH]c3cc(Cl)ccc23)CC1` is lower in melting point: 265 °C for the first, 173 to 175 °C for the second.

First: CCOC(=O)C1=C(C)NC(c2csc(C)n2)=NC1c1cccc(Cl)c1 (configuration not stated)
Second: Cc1cc2c(-c3cccc(Cl)c3)nc(Cl)nc2s1
The melting point of the first is higher: 143 to 144 °C for the first, 118 to 120 °C for the second.

First: C[N+]([O-])=C(Cn1cncn1)c1ccccc1
Second: CCC(=NNC(=O)c1ccccc1)c1cccnc1
The melting point of the first is lower: 117 to 119 °C for the first, 169 °C for the second.

First: O=C(O)c1cccc(Oc2ccc(C(=O)c3ccc(F)cc3)cc2)c1
Second: CCCCCCc1ccc(C(=O)Oc2ccc(C(=O)O)cc2)cc1
The melting point of the first is lower: 158 to 160 °C for the first, 162 °C for the second.

Compared with `CCOP(=O)(OCC)C(F)(F)c1ccc(CN(Cc2ccc(C(F)(F)P(=O)(OCC)OCC)cc2)C(=O)NCc2ccccc2)cc1`, `COC(=O)Cn1c(C)cc(Cc2ccc(F)cc2)c(NC(=O)OCc2ccccc2)c1=O` is higher in melting point: 124 to 127 °C for the first, 236 °C for the second.

First: CC(C)[C@H](NC(=O)OCc1ccccn1)C(=O)N[C@@H](Cc1ccccc1)C[C@H](O)[C@H](Cc1ccccc1)NC(=O)OCc1cncs1
Second: CC(C)C(NC(=O)NCc1ccccn1)C(=O)NC(Cc1ccccc1)C(O)C(Cc1ccccc1)NC(=O)C(NC(=O)NCc1ccccn1)C(C)C (configuration not stated)
The melting point of the first is lower: 166 to 168 °C for the first, 198 to 199 °C for the second.

First: Cc1nc[nH]c1CSCCNc1nc(C)c(Cc2ccccc2)c(=O)[nH]1
Second: CC(=O)Oc1ccc(-c2cnc(N(S(C)(=O)=O)S(C)(=O)=O)c(Cc3ccccc3)n2)cc1
The melting point of the first is lower: 140 to 142 °C for the first, 166 to 167 °C for the second.

First: NC(=O)OCCn1cc(C(N)=O)c([N+](=O)[O-])n1
Second: COc1ccc(CCNC(=O)C(N)=O)cc1OCCCCO
The melting point of the first is higher: 191 to 194 °C for the first, 47 to 49 °C for the second.

First: COC(=O)c1cnc2c(O)cccc2c1
Second: COC(=O)CCC(=O)c1cc(NC(C)=O)ccc1O
The melting point of the first is lower: 140 °C for the first, 145 to 147 °C for the second.

Going from `CCOC(=O)c1ccc(OCCCCCCCCc2cc(C)no2)cc1` to `CCCC(Oc1ccc2c(-c3ccc(Cl)cc3)noc2c1)C(=O)OCC` (configuration not stated), the melting point rises from 49 °C to 88 °C.

First: CCCc1c(OCCCCCCc2cccc(OCC(=O)O)c2CCC(=O)O)ccc2c1OCCC2=O
Second: CCCCCCCCc1ccc(CCC(CO)(CO)NC(C)=O)s1
The melting point of the first is higher: 127 to 129 °C for the first, 58 to 60 °C for the second.

Going from `O=c1[nH]c2ccc(C3CCN(Cc4ccc(-c5ccccc5)cc4)CC3)cc2[nH]1` to `N#Cc1c(N2CCNCC2)c2cc(F)ccc2n(Cc2ccccc2)c1=O`, the melting point falls from over 260 °C to 162 °C.

Compared with `CC(Cl)(Cl)C(NC(=O)c1cccc(Cl)c1)NC(=NC#N)Nc1cccnc1` (configuration not stated), `CC(=NNC(=O)c1cccc(C(F)(F)F)c1)c1cccnc1` is higher in melting point: 142 to 143 °C for the first, 183 °C for the second.

First: COc1cc(-c2ccccc2)on1
Second: COc1ccc2c(c1)C(=O)OCN2c1ccccc1
The melting point of the first is lower: 69 to 71 °C for the first, 99.5 to 101 °C for the second.

Compared with `O=C(O)C1Cc2c(c(Cl)cc3c(-c4ccc(F)cc4)noc23)O1` (configuration not stated), `Fc1ccc(C2OC(=S)OC2(Cn2cncn2)c2ccc(Cl)cc2Cl)cc1` (configuration not stated) is lower in melting point: 215 to 218 °C for the first, 169 to 170 °C for the second.

`Nc1nc(S(N)(=O)=O)c2ncn(C3OC(CO)C(O)C3O)c2n1` (configuration not stated) and `CCOCc1nc2c(N)nc3cc(-c4cccc(NS(C)(=O)=O)c4)cnc3c2n1CC(C)(C)F` cannot be ordered by melting point: over 193 °C for the first, 208 to 209 °C for the second.

Compared with `CS(=O)(=O)c1ccc(-c2sc(Nc3ccc(C#N)cc3)nc2-c2ccc(F)cc2)cc1`, `CS(=O)c1ccc(-c2nn(Cc3ccc(F)cc3F)c(=O)cc2-c2ccc(Cl)cc2)cc1` (configuration not stated) is lower in melting point: 273 to 274 °C for the first, 156 °C for the second.

Compared with `CCCC1(C)CC(=O)NC(=O)C1`, `CN(C)N=Nc1c[nH]c(=O)[nH]c1=O` is higher in melting point: 110 to 112 °C for the first, 166 to 167 °C for the second.

Compared with `CC(=O)OCC(=O)Nc1cccc(N2CCCCC2)c1C#N`, `CC(=O)SCC1CCCCCCCSC[C@@H](C(=O)OCc2ccccc2)NC1=O` (some centres not stated) is higher in melting point: 90 to 92 °C for the first, 192 to 193 °C for the second.

First: CCCS(=O)(=O)Oc1c(C(=O)c2ccc3c(c2C)C(N(C)C(=O)OC)CCS3(=O)=O)cnn1CC (configuration not stated)
Second: CCCS(=O)(=O)c1ccccc1S(=O)(=O)NC(=O)Nc1nc(Cl)cc(OCC)n1
The melting point of the first is lower: 156 to 159 °C for the first, 220 to 222 °C for the second.

First: COc1ccc(CNc2cc(Cl)ncc2C=O)cc1Cl
Second: CCC(=O)Nc1c(C(=O)c2cc(Cl)ccc2NC(C)=O)[nH]c2cc(Cl)ccc12
The melting point of the first is lower: 146 to 148 °C for the first, 264 to 266 °C for the second.

First: NNC(=O)C1=Nc2cccc3c(=O)[nH]nc(c23)N1
Second: NC(Cc1ccccc1)C(=O)Nc1nc2ccccc2c(=O)o1 (configuration not stated)
The melting point of the first is higher: over 300 °C for the first, 215 to 216 °C for the second.

First: CN1CCN=C1C(Br)(Br)[N+](=O)[O-]
Second: CC(C(SC(=S)N(C)C)c1ccccc1)[N+](=O)[O-] (configuration not stated)
The melting point of the first is lower: 88 to 90 °C for the first, 92 to 94 °C for the second.

First: CCCCS(=O)(=O)NCC1CCN(C(=O)OCc2ccccc2)CC1
Second: CC(C)(C)NC(=O)[C@@H]1CN(NC(=O)OC(C)(C)C)CCN1NC(=O)Cc1ccccc1
The melting point of the first is lower: 83 to 85 °C for the first, 134 to 135 °C for the second.

First: CC(C)OC(=O)C=Cc1cc(N)ccc1Cl
Second: CC(C)Sc1cc2c(cc1Cl)N=C(C(N)=O)NS2(=O)=O
The melting point of the first is lower: 98 to 100 °C for the first, 279 to 280 °C for the second.

First: CC(Oc1ccc(COc2ccc(Cl)cc2)cc1)C(=O)O (configuration not stated)
Second: O=C(NO)C(=O)c1ccc(OCCOc2ccc3ccccc3c2)s1
The melting point of the first is lower: 156 to 158 °C for the first, 165 to 167 °C for the second.

Compared with `O=C(/C=C/c1ccsc1)N1CCOCC1`, `O=C1COc2cc(C(=O)N3CCOCC3)ccc2N1` is higher in melting point: 141 to 142 °C for the first, 186 to 188 °C for the second.

First: CCCCSC(=S)N1Cc2[nH]c3ccccc3c2CC1CO (configuration not stated)
Second: CN1CCN(C2c3ccccc3CC2O)CC1 (configuration not stated)
The melting point of the first is lower: 60 to 63 °C for the first, 132 °C for the second.

First: Clc1ccc(-c2coc(CCCI)n2)cc1
Second: CN(C)S(=O)(=O)n1cnc(S(=O)(=O)NCc2ccc(Cl)cc2)c1
The melting point of the first is lower: 49 to 50 °C for the first, 171 to 173 °C for the second.

First: CSc1ccc(C2=NC[C@@H](OC(=O)Nc3ccccc3)[C@H](c3ccccc3)O2)cc1 (racemic)
Second: CC(N)C(O)(c1ccccc1)c1ccccc1 (configuration not stated)
The melting point of the first is higher: 170 °C for the first, 44 to 45 °C for the second.

Compared with `CCC1(CC)Oc2cc(OC)c(C#N)cc2[C@@H](N2CCCC2=O)[C@@H]1O` (relative stereo), `COc1nc(C)c2c(c1C=O)CCCC2O` (configuration not stated) is lower in melting point: 193 to 195 °C for the first, 107 °C for the second.

Compared with `ON=C(c1cc(F)cc(F)c1)c1cccc2nc(N[C@@H]3CCc4ccccc43)ccc12`, `Clc1ccc2c(c1)N=C(N1CCN[C@@H](Cc3ccccc3)C1)c1ccccc1N2` is lower in melting point: 120 °C for the first, 79 to 92 °C for the second.

First: O=C(Nc1cc(OC2CCCC2)c(Cl)cc1F)C1=C(C(=O)NC2CCCCC2)CCCC1
Second: CC(=O)OC1C(N2CCCCC2)CC2C3CCC4CCC(=O)CC4(C)C3CCC21C (configuration not stated)
The melting point of the first is higher: 209 to 211 °C for the first, 165 to 167 °C for the second.

Compared with `CCN(CC)CC#CC(=O)Nc1ccc2ncc(C#N)c(Nc3ccc(F)c(Cl)c3)c2c1`, `N#CCCNC(=O)c1cccc(-c2ccc3c(c2)N(Cc2ccc(Cl)cc2Cl)CCCC3)c1` is higher in melting point: 117 to 120 °C for the first, 139 to 140 °C for the second.

Compared with `Nc1nc2cc3c(cc2s1)OCO3`, `CCN1C(=O)OC(=Cc2ccc3c(c2)OCO3)C1=O` is lower in melting point: 200 °C for the first, 135 to 137 °C for the second.

First: CCCCCCCCCCCC(=O)NCCNCCNCCNC(=O)CCCCCCCCCCC
Second: CCCC(=O)NCCc1cc(-c2cccc(C(=O)OC)c2)cc2ccc(OC)cc12
The melting point of the first is higher: 110 to 112 °C for the first, 86 to 88 °C for the second.

First: O=C(Cn1nnnc1S)NO
Second: CNC(=NC#N)NCCSCc1noc(NC(=N)N)n1
The melting point of the first is lower: 105 to 107 °C for the first, 185 to 188 °C for the second.

First: CC(=O)N(C)c1csc(Br)n1
Second: Cc1c(C(=O)O)c(=O)c(Br)c(-c2ccccc2)n1C
The melting point of the first is lower: 84 °C for the first, 257 to 258 °C for the second.

First: COc1cccc(OC)c1C(=O)Nc1nnc(C(C)(C)CSC)s1
Second: CC(C)(C)OC(=O)c1nc(-c2ccccc2)[nH]c1-c1ccncc1
The melting point of the first is lower: 165 to 167 °C for the first, 205 to 206 °C for the second.

First: CCOC(=O)N1CCN(C(=O)C2CCC(=O)N2)CC1 (configuration not stated)
Second: CCOC(=O)c1c(N2CCN(C(=O)OCC)CC2)c2ccc(C)nc2n(CC)c1=O
The melting point of the first is higher: 147 to 148 °C for the first, 138 to 140 °C for the second.

Compared with `CCOC(=O)c1c(=O)c2cc(F)c(N3CCN(C)CC3)cc2n2ccccc12`, `CC(C)Nc1cccnc1N1CCN(C(=O)c2ccc(C(=O)N3CCNCC3)cc2)CC1` is higher in melting point: 167 to 170 °C for the first, 175 to 176 °C for the second.

First: CC12CCC(=O)C=C1CCC(=Cc1ccccc1)C2=O (configuration not stated)
Second: O=C1c2cc(I)ccc2-n2c1nc1ccccc1c2=O
The melting point of the first is lower: 88 °C for the first, 296 to 297 °C for the second.

First: CCOC(=O)C(=O)NNC(=O)c1cc2cccc(N(C)S(=O)(=O)c3cccs3)c2[nH]1
Second: CC(=O)Oc1cccc2c1C(=O)c1c(OC(C)=O)cc(-c3nnn[nH]3)cc1C2=O
The melting point of the first is lower: 133 to 134 °C for the first, 189 to 190 °C for the second.

Compared with `CC1CC2=C(OC(NC=N)C2)c2ccc(=O)[nH]c21` (configuration not stated), `CSc1c(C)[nH]c2c(C)cccc12` is lower in melting point: over 250 °C for the first, 32 to 33 °C for the second.

Compared with `CC(=O)NCC1CNC(=O)O1` (configuration not stated), `Cn1c(=O)c2c(ncn2COC(=O)C(C)(C)C)n(C)c1=O` is lower in melting point: 138 °C for the first, 108 to 110 °C for the second.

Compared with `N#CCc1cccc(Cn2ccc(OCc3ccc(F)cc3F)c(Br)c2=O)c1`, `O=S(=O)(Nc1ccc(Oc2cccc3cccnc23)c(Cl)c1)c1cccc(C(F)(F)F)c1` is higher in melting point: 120 to 121 °C for the first, over 245 °C for the second.

Compared with `COCCOCCOC(=O)C#CC(=O)/C=C/c1ccc(OC)cc1`, `COc1ccc(C(=O)Nc2ccc(N3CCC(NC[C@H](O)COc4cccc5[nH]c6ccccc6c45)CC3)cc2)cc1OC` is higher in melting point: 41 to 42 °C for the first, 183 to 191 °C for the second.

First: Cc1sc(N)c(C(=O)c2ccc(Cl)s2)c1C
Second: O=C1NN(c2ccccc2)CC1CN1CCOCC1 (configuration not stated)
The melting point of the first is lower: 125 to 127 °C for the first, 143 to 144 °C for the second.

— a melting point compilation (Tetko et al.; mined from patent text by program, amines drawn as free bases though some values may be those of a salt)
